# Earlier results, collected in US20240041893A1, “An Extended-Release Pharmaceutical Formulation of Viloxazine And Process For Preparation Thereof” (Innovate Therapeutics LLC, priority 2023, published 2024).
# Test system: norepinephrine reuptake
smiles,measurement,value
CCOc1ccccc1OC[C@@H]1CNCCO1 [(S)-(−)-isomer],pharmacological activity relative to the (R)-(+)-isomer,five times
